Data taken from patent publication US20220125784A1, “METHODS AND COMPOUNDS FOR INHIBITION OF INACTIVATION OF VOLTAGE-GATED SODIUM CHANNELS” (SIMON FRASER UNIVERSITY, priority 2019, published 2022).
“Also recorded” adds a separate entry of the source.

Legend:
WT Nav1.5-α subunits [1] = target: T1, WT Nav1.5-α subunits (Homo sapiens, UniProt Q14524); assay: Whole-cell patch clamp, single voltage-pulse protocol (peak INa, conductance, fast inactivation) in transiently transfected HEK293 cells; format: cell-based; details: for Peak INa −20 mV: normalized peak INa, 37° C.; for Peak INa Slope: Hill curve slope; for IC50: Hill curve; for IC50 / effect on peak INa: single voltage-pulse protocol; for effect on fast inactivation kinetics: open-state voltages between −30 and +10 mV
T1 construct: expressed in transfected cells; host or cells: HEK293 (transient transfection)
Procedure: (§1) In one set of studies, we used a whole-cell patch clamp technique with single voltage-pulse protocols (FIGS. 3A-B) to characterize compounds ZINC38767171, ZINC39699427, ZINC40014265, ZINC64470729, ZINC64470737 and ZINC64470745. Whole-cell patch clamp was performed in extracellular solution containing (in mM): 140 NaCl, 4 KCl, 2 CaCl2, 1 MgCl2, and 10 HEPES (pH 7.4 adjusted with CsOH). The intracellular pipettes were dipped in dental wax and thermally polished to attain a resistance of 1.0-1.5 MΩ. The intracellular solutions contained (in mM): 130 CsF, 10 NaCl, 10 HEPES, and 10 EGTA titrated to pH 7.4. The six compounds, ZINC38767171, ZINC39699427, ZINC40014265, ZINC64470729, ZINC64470737 and ZINC64470745, chosen for electrophysiology characterization, ordered from MolPort (Easy compound ordering services), were diluted to 10 μM, 50 μM, and 100 μM in extracellular solution for biophysical assessment of channel gating.
(§2) The six compounds were screened against wild type (WT) Nav1.5-α subunits at the optimal physiological temperature of 37° C. Human Embryonic Kidney (HEK293) cells were transfected with WT Nav1.5-α subunits (transient transfections). The α subunits were co-expressed with the β1 subunit and eGFP (enhanced green fluorescence protein) in a 2:1:2 ratio, respectively.
Conductance was measured by a protocol that depolarized the membrane from −100 mV to +80 mV in increments of +5 mV for 19 ms. Prior to the test pulse, channels were allowed to recover from fast inactivation at −130 mV for 197 ms. The tested compounds had no effect on the conductance midpoint (FIGS. 6A-F).
At voltages greater than −50 mV, the fast inactivation T values were calculated from the mono-exponential fit to the decay of sodium current.

WT Nav1.5-α subunits [2] = target: T1, WT Nav1.5-α subunits; assay: Whole-cell patch clamp, use-dependence (slow inactivation) protocol at 6 Hz in transiently transfected HEK293 cells; format: cell-based; details: for UDI Block Slope: Hill curve slope; for IC50: Hill curve, use-dependence at 6 Hz, read-out: UDI Block IC50
Procedure: as §1, §2
Slow inactivation (SI) was indirectly determined by measuring use-dependence, which is a physiologically-relevant protocol. The protocol includes a series of 500 110 ms depolarizing pulses to 0 mV followed by a 55 ms-90 mV recovery pulse at a frequency 6 Hz. With repetitive depolarizations, Nav1.5 channels accumulate into slow inactivation.

T1 sequence (Q14524 whole entry): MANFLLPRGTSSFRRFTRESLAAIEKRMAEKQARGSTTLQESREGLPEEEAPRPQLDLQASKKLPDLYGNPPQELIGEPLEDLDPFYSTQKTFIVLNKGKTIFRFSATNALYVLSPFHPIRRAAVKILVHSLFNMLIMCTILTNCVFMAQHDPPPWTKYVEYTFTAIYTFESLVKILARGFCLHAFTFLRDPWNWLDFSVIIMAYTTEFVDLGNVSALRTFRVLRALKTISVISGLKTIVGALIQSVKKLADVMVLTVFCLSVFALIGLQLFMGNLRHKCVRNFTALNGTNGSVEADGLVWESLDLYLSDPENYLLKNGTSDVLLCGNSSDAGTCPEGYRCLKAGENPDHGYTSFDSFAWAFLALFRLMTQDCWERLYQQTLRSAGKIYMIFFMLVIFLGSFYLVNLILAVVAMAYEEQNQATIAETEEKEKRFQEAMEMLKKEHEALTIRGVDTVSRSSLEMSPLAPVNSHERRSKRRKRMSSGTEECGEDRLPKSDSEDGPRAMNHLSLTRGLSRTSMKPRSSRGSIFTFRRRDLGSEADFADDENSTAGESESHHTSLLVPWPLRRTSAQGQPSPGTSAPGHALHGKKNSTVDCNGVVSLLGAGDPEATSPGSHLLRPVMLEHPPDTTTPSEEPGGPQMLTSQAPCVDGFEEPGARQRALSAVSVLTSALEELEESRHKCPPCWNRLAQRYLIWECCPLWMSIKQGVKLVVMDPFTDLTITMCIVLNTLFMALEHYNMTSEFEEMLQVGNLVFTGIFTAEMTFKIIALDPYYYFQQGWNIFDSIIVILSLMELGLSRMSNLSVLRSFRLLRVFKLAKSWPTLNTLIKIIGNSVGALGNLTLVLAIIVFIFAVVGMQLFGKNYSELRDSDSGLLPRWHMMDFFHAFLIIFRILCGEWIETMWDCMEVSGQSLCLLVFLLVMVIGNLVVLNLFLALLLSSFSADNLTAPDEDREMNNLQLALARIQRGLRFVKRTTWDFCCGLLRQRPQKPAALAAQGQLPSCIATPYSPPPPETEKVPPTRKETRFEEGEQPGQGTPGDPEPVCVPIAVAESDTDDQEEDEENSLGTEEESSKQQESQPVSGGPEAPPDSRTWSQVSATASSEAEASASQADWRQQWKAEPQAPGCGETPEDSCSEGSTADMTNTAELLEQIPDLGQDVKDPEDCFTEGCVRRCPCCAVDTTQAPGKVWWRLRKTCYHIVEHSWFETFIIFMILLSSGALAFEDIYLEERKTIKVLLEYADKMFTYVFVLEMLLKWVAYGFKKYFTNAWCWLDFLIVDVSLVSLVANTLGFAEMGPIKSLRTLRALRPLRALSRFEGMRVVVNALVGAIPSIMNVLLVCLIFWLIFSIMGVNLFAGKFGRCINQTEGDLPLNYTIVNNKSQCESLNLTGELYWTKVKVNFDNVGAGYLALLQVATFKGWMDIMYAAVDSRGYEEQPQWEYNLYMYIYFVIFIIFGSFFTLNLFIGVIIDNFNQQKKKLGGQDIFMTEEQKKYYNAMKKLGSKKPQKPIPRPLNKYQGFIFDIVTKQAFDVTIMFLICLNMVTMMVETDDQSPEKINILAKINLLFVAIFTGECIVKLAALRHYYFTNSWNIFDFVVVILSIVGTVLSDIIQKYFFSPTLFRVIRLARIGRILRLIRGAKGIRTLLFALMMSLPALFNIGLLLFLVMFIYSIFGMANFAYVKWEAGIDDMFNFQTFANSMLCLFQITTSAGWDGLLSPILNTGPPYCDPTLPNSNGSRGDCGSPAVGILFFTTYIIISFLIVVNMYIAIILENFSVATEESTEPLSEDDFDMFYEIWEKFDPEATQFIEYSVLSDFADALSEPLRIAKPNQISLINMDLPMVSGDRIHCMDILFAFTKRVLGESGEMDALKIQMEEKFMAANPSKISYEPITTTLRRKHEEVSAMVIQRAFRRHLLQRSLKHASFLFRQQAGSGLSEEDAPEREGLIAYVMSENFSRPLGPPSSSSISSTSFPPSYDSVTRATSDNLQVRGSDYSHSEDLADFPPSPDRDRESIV

Compound | % Block −20 mV (WT Nav1.5-α subunits [1]; 10 μM) [%] | fast inactivation onset time constant FI +10 mV (WT Nav1.5-α subunits [1]; 10 μM) [ms] | fast inactivation onset time constant FI −10 mV (WT Nav1.5-α subunits [1]; 10 μM) [ms] | fast inactivation onset time constant FI −30 mV (WT Nav1.5-α subunits [1]; 10 μM) [ms] | fast inactivation onset time constant FI −50 mV (WT Nav1.5-α subunits [1]; 10 μM) [ms] | Peak INa −20 mV (WT Nav1.5-α subunits [1]; 10 μM) | % Block −20 mV (WT Nav1.5-α subunits [1]; 50 μM) [%] | fast inactivation onset time constant FI +10 mV (WT Nav1.5-α subunits [1]; 50 μM) [ms] | fast inactivation onset time constant FI −10 mV (WT Nav1.5-α subunits [1]; 50 μM) [ms] | fast inactivation onset time constant FI −30 mV (WT Nav1.5-α subunits [1]; 50 μM) [ms] | fast inactivation onset time constant FI −50 mV (WT Nav1.5-α subunits [1]; 50 μM) [ms] | Peak INa −20 mV (WT Nav1.5-α subunits [1]; 50 μM) | % Block −20 mV (WT Nav1.5-α subunits [1]; 100 μM) [%] | fast inactivation onset time constant FI +10 mV (WT Nav1.5-α subunits [1]; 100 μM) [ms] | fast inactivation onset time constant FI −10 mV (WT Nav1.5-α subunits [1]; 100 μM) [ms] | fast inactivation onset time constant FI −30 mV (WT Nav1.5-α subunits [1]; 100 μM) [ms] | fast inactivation onset time constant FI −50 mV (WT Nav1.5-α subunits [1]; 100 μM) [ms] | Peak INa −20 mV (WT Nav1.5-α subunits [1]; 100 μM) | Peak INa Slope (WT Nav1.5-α subunits [1]) | IC50 (WT Nav1.5-α subunits [1]) [µM] | further results
O=C1N=c2ccc(C(=O)NCc3ccco3)cc2=NC1=O [ZINC38767171, N-(2-furylmethyl)-2,3-dioxo-quinoxaline-6-carboxamide] | −24.21 | 0.25 ± 0.05 | 0.39 ± 0.06 | 0.71 ± 0.12 | 1.70 ± 0.33 | −0.72 ± 0.06 | −37.89 | 0.34 ± 0.06 | 0.58 ± 0.08 | 0.94 ± 0.10 | 1.79 ± 0.15 | −0.59 ± 0.11 | −38.95 | 0.41 ± 0.11 | 0.60 ± 0.13 | 1.05 ± 0.21 | 1.92 ± 0.38 | −0.58 ± 0.10 | 1.697 | 7.61 | effect on fast inactivation kinetics (WT Nav1.5-α subunits [1]): significantly decelerated; also recorded: decelerate fast inactivation kinetics, but not significantly; UDI Block Slope (WT Nav1.5-α subunits [2]): 3.161; IC50 (WT Nav1.5-α subunits [2]): 0.251 µM
C=CCNS(=O)(=O)c1ccc2c(c1)=NC(=O)N=2 [ZINC39699427, N-allyl-2-oxo-benzimidazole-5-sulfonamide] | −34.00 | 0.21 ± 0.03 | 0.31 ± 0.04 | 0.54 ± 0.09 | 1.32 ± 0.24 | −0.66 ± 0.04 | −42.00 | 0.25 ± 0.03 | 0.35 ± 0.04 | 0.63 ± 0.08 | 1.46 ± 0.09 | −0.58 ± 0.06 | −47.00 | 0.26 ± 0.02 | 0.40 ± 0.03 | 0.72 ± 0.04 | 1.61 ± 0.18 | −0.53 ± 0.07 | 0.236 | 6.45 | effect on peak INa (WT Nav1.5-α subunits [1]): considerably blocked peak INa at low concentrations; effect on use-dependence (WT Nav1.5-α subunits [2]; 6 Hz): significantly increases; UDI Block Slope (WT Nav1.5-α subunits [2]): 4.556; IC50 (WT Nav1.5-α subunits [2]): 0.196 µM
COc1cccc(NS(=O)(=O)c2ccc3c(c2)=NC(=O)N=3)c1 [ZINC64470729, N-(3-methoxyphenyl)-2-oxo-benzimidazole-5-sulfonamide] | −22.68 | 0.26 ± 0.04 | 0.40 ± 0.08 | 0.70 ± 0.14 | 1.67 ± 0.21 | −0.75 ± 0.05 | −25.77 | 0.26 ± 0.02 | 0.40 ± 0.03 | 0.75 ± 0.07 | 1.97 ± 0.29 | −0.72 ± 0.06 | −38.14 | 0.23 ± 0.03 | 0.39 ± 0.02 | 0.76 ± 0.09 | 1.71 ± 0.22 | −0.60 ± 0.26 | 0.389 | 34.6 | effect on fast inactivation kinetics (WT Nav1.5-α subunits [1]): significantly decelerated; UDI Block Slope (WT Nav1.5-α subunits [2]): −0.194; IC50 (WT Nav1.5-α subunits [2]): 40.7 µM
CCc1ccccc1NS(=O)(=O)c1ccc2c(c1)=NC(=O)N=2 [ZINC64470737, N-(2-ethylphenyl)-2-oxo-benzimidazole-5-sulfonamide] | −22.45 | 0.31 ± 0.06 | 0.41 ± 0.07 | 0.66 ± 0.09 | 1.37 ± 0.31 | −0.76 ± 0.13 | −40.82 | 0.39 ± 0.02 | 0.64 ± 0.08 | 1.02 ± 0.13 | 1.88 ± 0.27 | −0.58 ± 0.10 | −74.49 | 0.49 ± 0.00 | 0.66 ± 0.00 | 0.96 ± 0.00 | 1.82 ± 0.00 | −0.25 ± 0.00 | 14.37 | 9.86 | effect on fast inactivation kinetics (WT Nav1.5-α subunits [1]): significantly decelerated; also recorded: decelerates fast inactivation kinetics the most; UDI Block Slope (WT Nav1.5-α subunits [2]): 0.710; IC50 (WT Nav1.5-α subunits [2]): 95.1 µM
Cc1cc(F)ccc1NS(=O)(=O)c1ccc2c(c1)=NC(=O)N=2 [ZINC64470745, N-(4-fluoro-2-methyl-phenyl)-2-oxo-benzimidazole-5-sulfonamide] | −23.71 | 0.27 ± 0.03 | 0.37 ± 0.03 | 0.66 ± 0.04 | 2.12 ± 0.34 | −0.74 ± 0.06 | −12.37 | 0.25 ± 0.02 | 0.37 ± 0.03 | 0.63 ± 0.05 | 1.75 ± 0.34 | −0.85 ± 0.08 | −24.74 | 0.28 ± 0.04 | 0.45 ± 0.07 | 0.81 ± 0.12 | 1.79 ± 0.20 | −0.73 ± 0.04 | 16.06 | 0.928 | plateau of drug block on sodium current (WT Nav1.5-α subunits [1]; attained at concentrations above 10 μM): −20%; effect on fast inactivation kinetics (WT Nav1.5-α subunits [1]): significantly decelerated; effect on peak INa (WT Nav1.5-α subunits [1]): blocked peak INa the least; also recorded: does not reduce peak Na at concentrations above 10 μM; UDI Block Slope (WT Nav1.5-α subunits [2]): 0.289; IC50 (WT Nav1.5-α subunits [2]): 901 µM
